Reference: patent publication US11691962B2 (eXIthera Pharmaceuticals, Inc., priority 2018, dated 2023)

Tests used:
Assay type in all cases: biochemical
[1] = biological target: Factor XIa (Homo sapiens (Human), UniProt P03951); assay: Factor XIa enzyme inhibition assay (dose response, fluorogenic AMC substrate); conditions: read-out: hFXIa IC50
How it was run: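 Fluorogenic progress curves (30 min, 1-min reads, 30° C) were recorded for 0.25 nM FXIa cleaving 50 μM Glp-Pro-Arg-AMC in Hepes pH 7.4 buffer with NaCl and Tween 20. Compounds were serially two-fold diluted, and IC50 was fitted with a Hill equation.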

[2] = biological target: Factor Xa (Homo sapiens (Human), UniProt P00742); assay: Dose response assay for protease inhibitors: Factor Xa; conditions: selectivity, Factor Xa over Factor XIa
How it was run: (§1)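 Glp-Pro-Arg-AMC substrate (thrombin, trypsin) or Pro-Phe-Arg-AMC/Boc-Leu-Gly-Arg-AMC (Factor Xa), diluted to 100 μM, in 20 mM Hepes pH 7.4, 150 mM NaCl, 0.02% Tween 20; enzyme diluted to 0.5 nM before addition. Two-fold serial compound dilutions; kinetic reads at 30° C. Data yield IC50 and Kon.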

[3] = system: Trypsin; assay: Dose response assay for protease inhibitors: trypsin; conditions: selectivity, trypsin over Factor XIa
How it was run: as §1

[4] = biological target: Thrombin (Homo sapiens (Human), UniProt P00734); assay: Dose response assay for protease inhibitors: thrombin; conditions: selectivity, thrombin over Factor XIa
How it was run: as §1

Factor XIa, sequence (P03951 388-625): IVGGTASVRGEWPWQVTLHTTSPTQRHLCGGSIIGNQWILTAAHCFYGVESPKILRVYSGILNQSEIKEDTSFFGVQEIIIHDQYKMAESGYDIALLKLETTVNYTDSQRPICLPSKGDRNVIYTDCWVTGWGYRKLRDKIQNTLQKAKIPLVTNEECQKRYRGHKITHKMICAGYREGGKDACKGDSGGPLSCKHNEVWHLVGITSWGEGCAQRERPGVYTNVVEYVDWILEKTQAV
Factor XIa, sequence (P03951 19-387 partner): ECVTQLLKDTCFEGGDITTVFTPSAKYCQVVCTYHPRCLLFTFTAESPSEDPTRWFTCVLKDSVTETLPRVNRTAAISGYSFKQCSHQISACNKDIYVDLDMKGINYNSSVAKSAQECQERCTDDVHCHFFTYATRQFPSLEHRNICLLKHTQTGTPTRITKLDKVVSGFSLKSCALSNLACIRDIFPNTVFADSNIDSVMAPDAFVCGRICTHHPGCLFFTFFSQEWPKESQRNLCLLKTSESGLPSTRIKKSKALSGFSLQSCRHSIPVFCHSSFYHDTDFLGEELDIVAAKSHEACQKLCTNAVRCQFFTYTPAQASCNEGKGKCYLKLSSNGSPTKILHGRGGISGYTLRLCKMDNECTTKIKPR
Factor Xa, sequence (P00742 235-488): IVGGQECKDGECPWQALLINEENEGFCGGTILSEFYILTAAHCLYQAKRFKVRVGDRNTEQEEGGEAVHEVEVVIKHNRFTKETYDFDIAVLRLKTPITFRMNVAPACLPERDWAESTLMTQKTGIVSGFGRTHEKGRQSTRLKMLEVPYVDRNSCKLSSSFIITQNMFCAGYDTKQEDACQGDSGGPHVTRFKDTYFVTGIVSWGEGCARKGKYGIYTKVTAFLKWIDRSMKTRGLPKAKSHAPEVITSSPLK
Factor Xa, sequence (P00742 41-179 partner): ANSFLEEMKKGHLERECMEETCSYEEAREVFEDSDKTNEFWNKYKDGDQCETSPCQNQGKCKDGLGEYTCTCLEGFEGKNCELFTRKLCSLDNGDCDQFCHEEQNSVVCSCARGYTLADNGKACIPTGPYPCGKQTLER

| Structure (SMILES) | IC50 [1] [nM] | Ratio: FXa/FXIa [2] | Ratio: Trypsin/FXIa [3] | Ratio: Thrombin/FXIa [4] |
| --- | --- | --- | --- | --- |
| CC[C@@H](NC(=O)N1C(=O)[C@H](Cc2ccnc(N)c2)[C@H]1C(=O)N(C)c1ccn(C)n1)c1cc(C)ccc1F [Compound 1-125, (2S,3R)-3-((2-aminopyridin-4-yl)methyl)-N2-(1-methyl-1H-pyrazol-3-yl)-N1-((R)-1-(2-fluoro-5-methylphenyl)propyl)-N2-methyl-4-oxoazetidine-1,2-dicarboxamide] | < 10 | I (“I” indicates > 500) | G (“G” indicates 1-100) | H (“H” indicates 101-1000) |
| CC[C@@H](NC(=O)N1C(=O)[C@H](Cc2ccnc(N)c2)[C@H]1C(=O)N(C)c1ccn(C)n1)c1ccc(C)c(C)c1 [Compound 1-127, (2S,3R)-3-((2-aminopyridin-4-yl)methyl)-N2-(1-methyl-1H-pyrazol-3-yl)-N1-((R)-1-(3,4-dimethylphenyl)propyl)-N2-methyl-4-oxoazetidine-1,2-dicarboxamide] | < 10 | H (“H” indicates 101-1000) | G (“G” indicates 1-100) | H (“H” indicates 101-1000) |
| CC[C@@H](NC(=O)N1C(=O)[C@H](Cc2ccnc(N)c2)[C@H]1C(=O)N(C)c1ccn(C)n1)c1cccc(F)c1C [Compound 1-128, (2S,3R)-3-((2-aminopyridin-4-yl)methyl)-N2-(1-methyl-1H-pyrazol-3-yl)-N1-((R)-1-(2-methyl-3-fluorophenyl)propyl)-N2-methyl-4-oxoazetidine-1,2-dicarboxamide] | < 10 | H (“H” indicates 101-1000) | G (“G” indicates 1-100) | H (“H” indicates 101-1000) |
| CC[C@@H](NC(=O)N1C(=O)[C@H](Cc2ccnc(N)c2)[C@H]1C(=O)N(C)c1ccn(C)n1)c1ccc(C)c(Cl)c1 [Compound 1-129, (2S,3R)-3-((2-aminopyridin-4-yl)methyl)-N2-(1-methyl-1H-pyrazol-3-yl)-N1-((R)-1-(3-chloro-4-methylphenyl)propyl)-N2-methyl-4-oxoazetidine-1,2-dicarboxamide] | < 10 | H (“H” indicates 101-1000) | G (“G” indicates 1-100) | H (“H” indicates 101-1000) |
| CC[C@@H](NC(=O)N1C(=O)[C@H](Cc2ccnc(N)c2)[C@H]1C(=O)N(C)c1ccn(C)n1)c1cccc(F)c1F [Compound 1-134, (2S,3R)-3-((2-aminopyridin-4-yl)methyl)-N2-(1-methyl-1H-pyrazol-3-yl)-N1-((R)-1-(2,3-difluorophenyl)propyl)-N2-methyl-4-oxoazetidine-1,2-dicarboxamide] | < 10 | I (“I” indicates > 500) | G (“G” indicates 1-100) | H (“H” indicates 101-1000) |
| CC[C@@H](NC(=O)N1C(=O)[C@H](Cc2ccnc(N)c2)[C@H]1C(=O)N(C)c1ccn(C)n1)c1ccc(C)c(F)c1 [Compound 1-136, (2S,3R)-3-((2-aminopyridin-4-yl)methyl)-N2-(1-methyl-1H-pyrazol-3-yl)-N1-((R)-1-(3-fluoro-4-methylphenyl)propyl)-N2-methyl-4-oxoazetidine-1,2-dicarboxamide] | < 10 | H (“H” indicates 101-1000) | G (“G” indicates 1-100) | H (“H” indicates 101-1000) |
| CC[C@@H](NC(=O)N1C(=O)[C@H](Cc2cc(C)nc(N)c2)[C@H]1C(=O)N(C)c1ccn(C)n1)c1cc(C)ccc1F [Compound 1-143, (2S,3R)-3-((2-amino-6-methylpyridin-4-yl)methyl)-N2 (1-methyl-1H-pyrazol-3-yl)-N1-((R)-1-(2-fluoro-5-methylphenyl)propyl)-N2-methyl-4-oxoazetidine-1,2-dicarboxamide] | < 10 | I (“I” indicates > 500) | G (“G” indicates 1-100) | H (“H” indicates 101-1000) |
| CC[C@@H](NC(=O)N1C(=O)[C@H](Cc2cc(C)nc(N)c2)[C@H]1C(=O)N(C)c1ccn(C)n1)c1cc(F)ccc1F [Compound 1-144, (2S,3R)-3-((2-amino-6-methylpyridin-4-yl)methyl)-N2-(1-methyl-1H-pyrazol-3-yl)-N1-((R)-1-(2,5-difluorophenyl)propyl)-N2-methyl-4-oxoazetidine-1,2-dicarboxamide] | < 10 | I (“I” indicates > 500) | G (“G” indicates 1-100) | H (“H” indicates 101-1000) |
| CC[C@@H](NC(=O)N1C(=O)[C@H](Cc2cc(C)nc(N)c2)[C@H]1C(=O)N(C)c1ccn(C)n1)c1cccc(F)c1F [Compound 1-146, (2S,3R)-3-((2-amino-6-methylpyridin-4-yl)methyl)-N2-(1-methyl-1H-pyrazol-3-yl)-N1-((R)-1-(2,3-difluorophenyl)propyl)-N2-methyl-4-oxoazetidine-1,2-dicarboxamide] | < 10 | I (“I” indicates > 500) | G (“G” indicates 1-100) | H (“H” indicates 101-1000) |
| CC[C@@H](NC(=O)N1C(=O)[C@H](Cc2cc(C)nc(N)c2)[C@H]1C(=O)N(C)c1ccnn1C)c1cccc(F)c1F [Compound 1-151, (2S,3R)-3-((2-amino-6-methylpyridin-4-yl)methyl)-N2-(1-methyl-1H-pyrazol-5-yl)-N1-((R)-1-(2,3-difluorophenyl)propyl)-N2-methyl-4-oxoazetidine-1,2-dicarboxamide] | < 10 | I (“I” indicates > 500) | G (“G” indicates 1-100) | I (“I” indicates > 500) |
| CC[C@@H](NC(=O)N1C(=O)[C@H](Cc2cc(C)nc(N)c2)[C@H]1C(=O)N(C)c1ccnn1C)c1cc(F)ccc1C [Compound 1-162, (2S,3R)-3-((2-amino-6-methylpyridin-4-yl)methyl)-N2-(1-methyl-1H-pyrazol-5-yl)-N1-((R)-1-(5-fluoro-2-methylphenyl)propyl)-N2-methyl-4-oxoazetidine-1,2-dicarboxamide] | < 10 | I (“I” indicates > 500) | G (“G” indicates 1-100) | I (“I” indicates > 500) |
| CC[C@@H](NC(=O)N1C(=O)[C@H](Cc2cc(C)nc(N)c2)[C@H]1C(=O)N(C)c1ccnn1C)c1cc(F)ccc1F [Compound 1-163, (2S,3R)-3-((2-amino-6-methylpyridin-4-yl)methyl)-N2-(1-methyl-1H-pyrazol-5-yl)-N1-((R)-1-(2,5-difluorophenyl)propyl)-N2-methyl-4-oxoazetidine-1,2-dicarboxamide] | < 10 | I (“I” indicates > 500) | G (“G” indicates 1-100) | I (“I” indicates > 500) |
| CC[C@@H](NC(=O)N1C(=O)[C@H](Cc2cc(C)nc(N)c2)[C@H]1C(=O)N(C)c1cnn(C)c1)c1cc(F)ccc1F [Compound 1-182, (2S,3R)-3-((2-amino-6-methylpyridin-4-yl)methyl)-N2-(1-methyl-1H-pyrazol-4-yl)-N1-((R)-1-(2,5-difluorophenyl)propyl)-N2-methyl-4-oxoazetidine-1,2-dicarboxamide] | < 10 | I (“I” indicates > 500) | G (“G” indicates 1-100) | H (“H” indicates 101-1000) |
